Assay [1] deals with platelets. Kind of assay: Collagen-dependent aggregation of gel-filtered human platelets (light transmittance). The assay is classed as cell-based. As to conditions: 5 μg/ml collagen; 1,10-PA 100 μM, MMP-200 200 nM, FN-439 3 μM, RWJ-56110 1 μM, PAR1 Ab 75 μg/ml, pepducins 3 μM, PPACK 200 μM, hirudin 1 U/ml. Here is the method: Platelet pellets and their supernatants were prepared as follows. […] following established informed consent procedures. […] Alternatively, whole blood was obtained from Hartley Sprague guinea pigs (drawn from the vena cava) into 3% citrate plus 10 U/ml heparin. Washed platelets from the guinea pigs were prepared in PIPES buffer. Platelet aggregation was measured with a Chronolog 560VS/490-2D aggregometer using modified PIPES buffer as a blank. Samples were incubated for 5 min in the presence of inhibitors and 1.8 mM CaCl2 prior to addition of agonist. All reactions were in final volumes of 250 μl at 37° C. while stirring at 900 rpm.
The effect of pharmacologic blockage of metalloproteases or PAR1 on collagen-dependent platelet aggregation was then tested (see FIG. 5). Gel-filtered platelets from healthy individuals (supplemented with 0.3 mg/ml fibrinogen) were challenged with 5 μg/ml collagen in the presence or absence (0.2% DMSO vehicle) of the indicated inhibitors and allowed to stir at 900 rpm in an aggregometer cuvette (250 μL) at 37° C.
In FIG. 5A, platelet aggregation was monitored by light transmittance.

The test system of assay [2] is platelets. Kind of assay: Platelet thrombus formation on collagen surface under arterial flow, CTI-anticoagulated whole blood. The class given is cell-based, human. The conditions noted are these: CTI 30 μg/mL, hirudin 0.0013 U/mL, aspirin 1 mM. The protocol:
Collagen-activated platelets also provide a pro-coagulant surface and produce tissue factor, which aids in the production of thrombin (Giesen at al., 1999; Mackman, 2004; Schwertz et al., 2006).
Whole blood was anti-coagulated with CTI (30 μg/mL) to block the contact pathway, otherwise the experiments were conducted identically as in FIG. 6A. Hirudin was used as indicated at 0.0013 UImL.

Assay [3] concerns PAR1. Kind of assay: Release of PAR1 N-terminal cleavage peptide from gel-filtered platelets (dot blot, IIaR-A antibody). The class given is cell-based, human. From the text:
To further understand how collagen is able to activate significant amounts of endogenous MMP-1 collagenase activity on the surface of platelets, experiments were devised to determine if PAR-1 is cleaved in either an autocrine or paracrine manner following exposure to collagen. Using a monoclonal antibody raised against the amino-terminal thrombin-cleavage peptide region of PAR1, residues 32-46 (Loew et al., 2000), the relative abilities of thrombin, MMP-1 and collagen to cause cleavage of platelet PAR1 was assessed. Gel filtered platelets were treated for 10 min with thrombin (3 nM), MMP-1 (3 nM), collagen (5 μg/ml), in the presence or absence (PBS buffer) of 0.00013 U hirudin or 5 μM FN-439 at 37° C. Supernatants were concentrated 20-fold and applied to nitrocellulose membranes, then probed with the IIaR-A monoclonal antibody. The PAR1 N-terminal thrombin deavage peptide (A26-R41) and PAR1 flexible linker peptide (N-acetyl-T67-L84 -C) (Kuliopulos et al., 1999) served as positive and negative controls (100 ng), respectively.
These platelets were then stimulated with collagen (5 μg/ml) for 10 min. at 37° C. Supernatants were concentrated 20-fold and applied to nitrocellulose membranes, then probed with the IIaR-A monoclonal antibody. […] FN-439, or an MMP1-blocking antibody (20 μg/ml) but not by thrombin inhibitor, hirudin (see FIG. 1E, FIG. 1G).

The subject of assay [4] is Rho-GTP. Kind of assay: Collagen-induced Rho-GTP activity in platelets (western blot). The class given is cell-based, human. As to conditions: 5 or 20 μg/ml collagen or 10 nM MMP-1; ARC 0.5 μM, aspirin 1 mM. Here is the method: In FIG. 5C, platelets were treated as in FIG. 5B and then Rho GTP activity was assessed by western blot.
Representative blots are shown at the bottom of FIGS. 5B-D. Data are the mean±s.d. of three experiments. P*<0.01, #<0.05.
On the technique in general: Immunoblotting shows a protein as a band on a membrane.

For assay [5], the system named is p38 MAPK. Nature of the assay: Collagen-induced phospho-p38 MAPK in platelets (western blot). The conditions noted are these: 5 or 20 μg/ml collagen or 10 nM MMP-1; ARC 0.5 μM, aspirin 1 mM. The class given is cell-based, human. The protocol: The effect of pharmacologic blockage of metalloproteases or PAR1 on collagen-dependent platelet aggregation was then tested (see FIG. 5). […] Platelets were pre-incubated for 5 min with the thrombin inhibitors PPACK (200 μM) or hirudin (1 U/ml), the Zn-chelator 1,10-phenanthroline (1,10-PA; 100 μM), the broad spectrum metalloprotease inhibitor MMP-200 (200 nM), the MMP-1 inhibitor FN-439 (3 μM), the PAR1 ligand binding site inhibitor RWJ-56110 (1 μM), the PAR1 blocking antibody (75 μg/ml), the PAR1 pepducin lipopeptides P1pal-12 (3 μM) or P1pal-7 (3 μM), the PAR4 pepducin lipopeptide P4pal-10 (3 μM), MMP-8 inhibitor (25 nM) or MMP9/13 inhibitor (10 nM).
In FIG. 5B, platelets were treated as in FIG. 5A and then lysed with Laemmli sample buffer 5 min after addition of collagen, p38 MAPK activity was then assessed by western blot with a p38 MAPK phospho-Ab and total p38 loading was determined using a p38 MAPK antibody.

The subject of assay [6] is platelets. Nature of the assay: Platelet thrombus formation on collagen surface under arterial flow, heparin-anticoagulated whole blood. The class given is cell-based, human. As to conditions: heparin 10 U/mL; shear rate 1,000 s-1; FN-439 3 μM, RWJ-56110 1 μM, pepducins 3 μM, aspirin 1 mM. Here is the method: Following incubation with inhibitors, the blood was perfused over a glass slide coated with fibrillar collagen type I.
A flow chamber (Glycotech) with Type-I fibrillar collagen-coated glass slides was mounted on the stage of an IMT-2 inverted microscope (Olympus) equipped with Retiga 1300 digital camera (QImaging) and 40× objective. One of the flow chamber inlets was connected to a syringe pump (Harvard Apparatus) calibrated to create a shear rate of 1,000^s-1. The whole blood pretreated with the various pharmacologic inhibitors was then perfused over the collagen-coated glass slide. After 2-15 min of perfusion, blood was removed from the flow chamber by gentle displacement with PIPES buffer and images of 8-10 fields were acquired using OpenLab software (Improvision). Acquired images were further analyzed using NIH Image 1.63 software. Images were first sharpened and the edges of separate platelets and platelet aggregates were determined. Following the adjustment of threshold, images were converted into the binary format, and the particle analysis function was activated to highlight the regions covered by platelets with the sensitivity set to one single adherent thrombocyte. For the conversion of pixels into square micrometers, a calibration curve was built using 2.5, 6, 20, 25, and 45 μm polystyrene beads (Polyscience) using acquisition conditions identical to the experimental. The mean area of formed thrombus was determined at 7 min. Area measurements in FIG. 6B represent the mean±s.e. of three separate experiments from five different blood donors.

Consider hirudin, for which the “inhibition (loss) of collagen-induced platelet aggregation” value in assay [1] is “no effect”. Further, in assay [2], the “effect on size of platelet micro-thrombi on collagen surfaces” value is recorded as “no effect”. The “block of thrombin-induced release of N-terminal cleavage peptide of PAR1” value in assay [3] (3 nM thrombin, 0.00013 U hirudin) is “blocked”.
As for `CC(=O)Oc1ccccc1C(=O)O` [aspirin], in assay [4], the “effect on activation of Rho-GTP” value was “no effect”. The “effect on activation of phospho-p38 MAPK” value in assay [5] is “no effect”. Further, the “effect on size of platelet micro-thrombi on collagen surfaces” value in assay [2] is “did not affect”. Also, the “block of collagen-induced release of PAR1 N-terminal peptide” value in assay [3] (5 μg/ml collagen, 10 min, 37° C., Ab 20 μg/ml, ARC 0.5 μM, ASA 1 mM) is on record as “no effect”. For the same compound, the “attenuation of growth rate and size of platelet aggregate strings” value in assay [6] was “little or no effect”.

The values above are taken from patent US9376499B2, “PAR-1 activation by metalloproteinase-1 (MMP-1)” (Tufts Medical Center, Inc., priority 2009, dated 2016).
